Measurements: ChEMBL document CHEMBL4840351 (J Med Chem, 2021)

Experiments:
[1] = molecular target: Epidermal growth factor receptor (Homo sapiens, UniProt P00533); experiment: Inhibition of N-terminal DYKDDDD-tagged EGFR (669 to 1210 residues) (unknown origin) expressed in Sf21 insect cells using NH2-ETVYSEVRK-biotin as substrate preincubated for 1 hr followed by ATP addition and measured after 2 hrs by ELISA
[2] = molecular target: T1, Tyrosine-protein kinase ITK/TSK (Homo sapiens, UniProt Q08881); experiment: Inhibition of full-length N-terminal GST-tagged ITK (2 to 620 residues) (unknown origin) expressed in Sf21 insect cells using NH2-ETVYSEVRK-biotin as substrate preincubated for 1 hr followed by ATP addition and measured after 2 hrs by ELISA
T1 sequence (Q08881 whole entry): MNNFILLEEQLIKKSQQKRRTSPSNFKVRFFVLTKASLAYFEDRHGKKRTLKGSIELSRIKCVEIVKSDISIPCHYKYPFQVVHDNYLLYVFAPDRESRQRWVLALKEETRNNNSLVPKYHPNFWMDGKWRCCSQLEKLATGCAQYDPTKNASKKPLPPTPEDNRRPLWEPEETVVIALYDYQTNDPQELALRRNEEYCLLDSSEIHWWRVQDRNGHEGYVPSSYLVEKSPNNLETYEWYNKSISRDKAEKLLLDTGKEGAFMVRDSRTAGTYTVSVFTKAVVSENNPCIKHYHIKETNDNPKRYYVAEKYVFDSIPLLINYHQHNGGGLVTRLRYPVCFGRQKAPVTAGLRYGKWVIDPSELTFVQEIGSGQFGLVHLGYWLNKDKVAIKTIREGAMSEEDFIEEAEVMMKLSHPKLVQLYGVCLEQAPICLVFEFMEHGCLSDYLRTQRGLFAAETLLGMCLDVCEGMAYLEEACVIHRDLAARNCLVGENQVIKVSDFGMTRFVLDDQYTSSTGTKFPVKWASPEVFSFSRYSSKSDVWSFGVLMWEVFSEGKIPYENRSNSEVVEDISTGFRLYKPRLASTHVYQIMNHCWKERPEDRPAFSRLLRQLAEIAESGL

[3] = molecular target: Tyrosine-protein kinase BTK (Homo sapiens, UniProt Q06187); experiment: Inhibition of full-length N-terminal GST tagged BTK (2 to 659 residues) (unknown origin) expressed in Sf21 insect cells using NH2-ETVYSEVRK-biotin as substrate preincubated for 1 hr followed by ATP addition and measured after 2 hrs by ELISA
TMD8 [4] = experiment: Induction of cell cycle arrest in human TMD8 cells assessed as accumulation of cells at G2 phase at 3 nM incubated for 48 hrs by PI staining based flow cytometric analysis (reference value: 4.92 %); assay type: functional
TMD8 [5] = experiment: Induction of cell cycle arrest in human TMD8 cells assessed as accumulation of cells at G2 phase at 30 nM incubated for 48 hrs by PI staining based flow cytometric analysis (reference value: 4.92 %); assay type: functional
TMD8 [6] = experiment: Induction of cell cycle arrest in human TMD8 cells assessed as accumulation of cells at G2 phase at 300 nM incubated for 48 hrs by PI staining based flow cytometric analysis (reference value: 4.92 %); assay type: functional
TMD8 [7] = experiment: Induction of cell cycle arrest in human TMD8 cells assessed as accumulation of cells at G1 phase at 30 nM incubated for 48 hrs by PI staining based flow cytometric analysis (reference value: 57.66 %); assay type: functional
TMD8 [8] = experiment: Induction of apoptosis in human TMD8 cells at 30 nM incubated for 72 hrs by Annexin V-FITC/PI staining based flow cytometric analysis (reference value: 13.4 %); assay type: functional
TMD8 [9] = experiment: Antiproliferative activity against human TMD8 cells assessed as reduction in cell viability incubated for 72 hrs by celltiter-glo assay; conditions: TMD8, 72 h
TMD8 [10] = experiment: Induction of cell cycle arrest in human TMD8 cells assessed as accumulation of cells at S phase at 3 nM incubated for 48 hrs by PI staining based flow cytometric analysis (reference value: 37.42 %); assay type: functional
TMD8 [11] = experiment: Induction of cell cycle arrest in human TMD8 cells assessed as accumulation of cells at G1 phase at 3 nM incubated for 48 hrs by PI staining based flow cytometric analysis (reference value: 57.66 %); assay type: functional
TMD8 [12] = experiment: Induction of cell cycle arrest in human TMD8 cells assessed as accumulation of cells at S phase at 300 nM incubated for 48 hrs by PI staining based flow cytometric analysis (reference value: 37.42 %); assay type: functional
Ramos = experiment: Antiproliferative activity against human Ramos cells assessed as reduction in cell viability incubated for 72 hrs by celltiter-glo assay
TMD8 [13] = experiment: Induction of apoptosis in human TMD8 cells at 3000 nM incubated for 72 hrs by Annexin V-FITC/PI staining based flow cytometric analysis (reference value: 13.4 %); assay type: functional
TMD8 [14] = experiment: Induction of cell cycle arrest in human TMD8 cells assessed as accumulation of cells at S phase at 30 nM incubated for 48 hrs by PI staining based flow cytometric analysis (reference value: 37.42 %); assay type: functional
MOLM-13 = experiment: Antiproliferative activity against human MOLM-13 cells assessed as reduction in cell viability incubated for 72 hrs by celltiter-glo assay; conditions: MOLM-13, 72 h
TMD8 [15] = experiment: Induction of cell cycle arrest in human TMD8 cells assessed as accumulation of cells at G1 phase at 300 nM incubated for 48 hrs by PI staining based flow cytometric analysis (reference value: 57.66 %); assay type: functional
TMD8 [16] = experiment: Induction of apoptosis in human TMD8 cells at 300 nM incubated for 72 hrs by Annexin V-FITC/PI staining based flow cytometric analysis (reference value: 13.4 %); assay type: functional
TMD8 [17] = experiment: Antitumor activity against human TMD8 cells xenografted in CB-17 SCID nude mouse assessed as tumor growth inhibition at 7.5 mg/kg, po bid administered for 21 days; assay type: functional; conditions: 504 h, time 21 day, read-out: TGI
Pfeiffer = experiment: Antiproliferative activity against human Pfeiffer cells assessed as reduction in cell viability incubated for 72 hrs by celltiter-glo assay
Raji = experiment: Antiproliferative activity against human Raji cells assessed as reduction in cell viability incubated for 72 hrs by celltiter-glo assay
[18] = Receptor occupancy at BTK in spleen of ICR mouse at 15 mg/kg, po after 24 hrs by ELISA; assay type: functional
SU-DHL-2 = experiment: Antiproliferative activity against human SUDHL2 cells assessed as reduction in cell viability incubated for 72 hrs by celltiter-glo assay; conditions: SU-DHL-2, 72 h
NAMALVA = experiment: Antiproliferative activity against human NAMALWA cells assessed as reduction in cell viability incubated for 72 hrs by celltiter-glo assay
[19] = Cmax in ICR mouse at 15 mg/kg, po after 24 hrs; assay type: ADME, organism-based; set-up: route oral, time 24 hrs, dose 15 mg/kg; conditions: in vivo
Rec1 = experiment: Antiproliferative activity against human REC-1 cells assessed as reduction in cell viability incubated for 72 hrs by celltiter-glo assay; conditions: Rec1, 72 h

Chain of Tyrosine-protein kinase BTK (Q06187 whole entry, the tested form may be a part): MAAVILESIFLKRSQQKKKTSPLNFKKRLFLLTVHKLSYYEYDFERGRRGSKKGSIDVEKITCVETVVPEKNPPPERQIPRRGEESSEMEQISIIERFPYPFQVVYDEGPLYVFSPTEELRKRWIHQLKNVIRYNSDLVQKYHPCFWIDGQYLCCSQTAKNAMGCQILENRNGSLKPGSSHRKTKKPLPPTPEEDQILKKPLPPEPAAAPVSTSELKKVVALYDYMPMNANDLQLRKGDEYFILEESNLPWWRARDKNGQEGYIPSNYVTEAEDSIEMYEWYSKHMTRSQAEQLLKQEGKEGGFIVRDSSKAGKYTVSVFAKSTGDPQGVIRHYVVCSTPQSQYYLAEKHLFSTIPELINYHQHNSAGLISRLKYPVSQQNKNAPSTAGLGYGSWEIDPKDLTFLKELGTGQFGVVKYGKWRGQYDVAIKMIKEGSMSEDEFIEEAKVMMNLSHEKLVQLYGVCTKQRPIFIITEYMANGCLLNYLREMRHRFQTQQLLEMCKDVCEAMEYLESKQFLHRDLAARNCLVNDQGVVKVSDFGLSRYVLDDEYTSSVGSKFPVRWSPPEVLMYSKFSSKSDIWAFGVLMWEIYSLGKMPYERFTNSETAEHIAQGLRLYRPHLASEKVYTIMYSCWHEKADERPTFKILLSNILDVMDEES
Chain of Epidermal growth factor receptor (P00533 whole entry, the tested form may be a part): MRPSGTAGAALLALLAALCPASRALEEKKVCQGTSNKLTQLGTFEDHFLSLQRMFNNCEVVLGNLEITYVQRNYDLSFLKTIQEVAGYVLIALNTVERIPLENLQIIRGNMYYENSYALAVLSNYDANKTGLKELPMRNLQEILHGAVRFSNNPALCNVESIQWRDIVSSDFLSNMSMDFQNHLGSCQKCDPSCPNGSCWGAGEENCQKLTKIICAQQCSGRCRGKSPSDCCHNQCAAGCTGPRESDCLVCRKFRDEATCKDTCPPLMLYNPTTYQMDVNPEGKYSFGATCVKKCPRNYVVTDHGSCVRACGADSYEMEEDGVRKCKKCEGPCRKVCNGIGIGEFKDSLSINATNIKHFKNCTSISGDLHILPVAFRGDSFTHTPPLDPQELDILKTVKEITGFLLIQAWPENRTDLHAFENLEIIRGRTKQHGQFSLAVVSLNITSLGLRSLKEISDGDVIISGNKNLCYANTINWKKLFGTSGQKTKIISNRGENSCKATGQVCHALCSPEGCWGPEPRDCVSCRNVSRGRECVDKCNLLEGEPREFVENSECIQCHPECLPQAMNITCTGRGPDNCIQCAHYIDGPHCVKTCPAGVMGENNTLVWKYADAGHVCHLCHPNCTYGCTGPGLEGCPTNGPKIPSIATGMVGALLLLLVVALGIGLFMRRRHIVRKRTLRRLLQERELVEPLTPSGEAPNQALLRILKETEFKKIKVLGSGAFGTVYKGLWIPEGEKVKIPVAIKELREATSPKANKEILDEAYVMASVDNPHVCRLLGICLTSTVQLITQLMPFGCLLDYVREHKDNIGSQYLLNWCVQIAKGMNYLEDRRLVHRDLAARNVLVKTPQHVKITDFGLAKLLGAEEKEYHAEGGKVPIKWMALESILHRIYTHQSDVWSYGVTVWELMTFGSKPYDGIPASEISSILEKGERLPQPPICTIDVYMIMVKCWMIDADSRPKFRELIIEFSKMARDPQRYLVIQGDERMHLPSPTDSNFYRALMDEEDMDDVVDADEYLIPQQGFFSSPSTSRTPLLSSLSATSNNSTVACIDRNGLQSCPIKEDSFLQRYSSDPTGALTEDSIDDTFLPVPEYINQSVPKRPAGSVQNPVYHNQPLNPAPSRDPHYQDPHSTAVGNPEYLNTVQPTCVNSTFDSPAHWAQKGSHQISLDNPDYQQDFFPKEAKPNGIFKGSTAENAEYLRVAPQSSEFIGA

C=CC(=O)N1CCCC[C@H]1c1nc(-c2ccc(C(=O)Nc3cc(-c4ccccc4)ccn3)cc2)c(C(N)=O)n1N
IC50 [1]: 79.4 nM
IC50 [2]: 2.21 µM

CCC(=O)N1CCCC[C@H]1c1nc(-c2ccc(C(=O)Nc3cc(C(F)(F)F)ccn3)cc2)c(C(N)=O)n1N
IC50 [3]: 4750 nM

C=CC(=O)N1CCCC[C@H]1c1nc(-c2ccc(C(=O)Nc3cc(C(F)(F)F)ccn3)cc2)c(C(=O)OCC)n1N
IC50 [3]: 5160 nM

C=CC(=O)N1CCCC[C@H]1c1nc(-c2ccc(C(=O)Nc3cc(Br)ccn3)cc2)c(C(N)=O)n1N
IC50 [1]: 578 nM
IC50 [2]: 15.3 µM

C=CC(=O)N1CCC[C@H]1c1nc(-c2ccc(C(=O)Nc3cc(CC)ccn3)cc2)c(C(N)=O)n1N
IC50 [3]: 39.3 nM

CCc1ccnc(NC(=O)c2ccc(-c3nc([C@@H]4CCCCN4C(=O)C=C(C)C)n(N)c3C(N)=O)cc2)c1
IC50 [3]: > 10000 nM

C=CC(=O)N1CCCC[C@H]1c1nc(-c2ccc(C(=O)Nc3cc(C#N)ccn3)cc2)c(C(N)=O)n1N
IC50 [3]: 17.1 nM

C=CC(=O)N1CCCC[C@H]1c1nc(-c2ccc(C(=O)Nc3cc(CC)ccn3)cc2)c(C(N)=O)n1N
IC50 [3]: 11.3 nM

CC#CC(=O)N1CCCC[C@H]1c1nc(-c2ccc(C(=O)Nc3cc(Cl)ccn3)cc2)c(C(N)=O)n1N
IC50 [1]: > 30000 nM
IC50 [2]: > 30 µM

C=CC(=O)N1CCC[C@@H](c2nc(-c3ccc(C(=O)Nc4cc(CC)ccn4)cc3)c(C(N)=O)n2N)C1
IC50 [3]: 18.9 nM

C=CC(=O)N1CCCCC[C@H]1c1nc(-c2ccc(C(=O)Nc3cc(CC)ccn3)cc2)c(C(N)=O)n1N
IC50 [3]: 226 nM

CC#CC(=O)N1CCCC[C@H]1c1nc(-c2ccc(C(=O)Nc3cc(C(F)(F)F)ccn3)cc2)c(C(N)=O)n1N
Activity (TMD8 [4]): 4.09%
Activity (TMD8 [5]): 4.76%
Activity (TMD8 [6]): 3.18%
Activity (TMD8 [7]): 67.44%
Activity (TMD8 [8]): 14.1%
IC50 (TMD8 [9]): 54 nM
Activity (TMD8 [10]): 41.28%
Activity (TMD8 [11]): 54.63%
Activity (TMD8 [12]): 1.96%
IC50 (Ramos): 0.77 µM
Activity (TMD8 [13]): 81.3%
IC50 [2]: > 30 µM
Activity (TMD8 [14]): 27.8%
IC50 (MOLM-13): 0.73 µM
Activity (TMD8 [15]): 94.86%
Activity (TMD8 [16]): 36.8%

C=C(C)C(=O)N1CCCC[C@H]1c1nc(-c2ccc(C(=O)Nc3cc(CC)ccn3)cc2)c(C(N)=O)n1N
IC50 [3]: > 10000 nM

C=CC(=O)N1CCCC[C@H]1c1nc(-c2ccc(C(=O)Nc3cccnc3)cc2)c(C(N)=O)n1N
IC50 [3]: > 10000 nM

CC#CC(=O)N1CCCC[C@H]1c1nc(-c2ccc(C(=O)Nc3cc(-c4ccccc4)ccn3)cc2)c(C(N)=O)n1N
IC50 [1]: 16800 nM
IC50 [2]: > 30 µM

CC#CC(=O)N1CCC[C@H]1c1nc(-c2ccc(C(=O)Nc3ccccn3)cc2)c2c(N)nccn12 [ACALABRUTINIB]
inhibition in vivo at 7.5 mg/kg (TMD8 [17]): 91%
IC50 (TMD8 [9]): 24 nM
IC50 (Pfeiffer): > 10 µM
IC50 (Raji): > 10 µM
IC50 (Ramos): 31.3 µM
Occ [18]: 44%
IC50 (SU-DHL-2): > 10 µM
IC50 (NAMALVA): > 10 µM
IC50 (MOLM-13): 358 µM
Cmax [19]: 780 nM
IC50 (Rec1): 13 nM

CC/C=C/C(=O)N1CCCC[C@H]1c1nc(-c2ccc(C(=O)Nc3cc(CC)ccn3)cc2)c(C(N)=O)n1N
IC50 [3]: > 10000 nM

C=CC(=O)N1CCCC[C@H]1c1nc(-c2ccc(C(=O)Nc3cc(-c4ccc(F)cc4)ccn3)cc2)c(C(N)=O)n1N
IC50 [1]: 113 nM
IC50 [2]: 6.06 µM

C=CC(=O)N1CCC[C@@H](n2nc(-c3ccc(Oc4ccccc4)cc3)c3c(N)ncnc32)C1 [IBRUTINIB]
inhibition in vivo at 7.5 mg/kg (TMD8 [17]): 99%

C=CC(=O)N1CCCC[C@H]1c1nc(-c2ccc(C(=O)Nc3ccccc3)cc2)c(C(N)=O)n1N
IC50 [3]: 571 nM

C=CC(=O)N1CCCC[C@H]1c1nc(-c2ccc(C(=O)Nc3cc(-c4ccc(Cl)cc4)ccn3)cc2)c(C(N)=O)n1N
IC50 [1]: 12.6 nM
IC50 [2]: 1.92 µM

C=CC(=O)N1CCCC[C@H]1c1nc(-c2ccc(C(=O)Nc3cc(Cl)ccn3)cc2)c(C(N)=O)n1N
IC50 [1]: 176 nM
IC50 [2]: 29.5 µM

CCc1ccnc(NC(=O)c2ccc(-c3nc([C@@H]4CCCCN4C(=O)/C(C#N)=C/C4CC4)n(N)c3C(N)=O)cc2)c1
IC50 [3]: > 10000 nM

C/C=C/C(=O)N1CCCC[C@H]1c1nc(-c2ccc(C(=O)Nc3cc(CC)ccn3)cc2)c(C(N)=O)n1N
IC50 [3]: > 10000 nM

C#CC(=O)N1CCCC[C@H]1c1nc(-c2ccc(C(=O)Nc3cc(CC)ccn3)cc2)c(C(N)=O)n1N
IC50 [3]: 10 nM

C=CC(=O)N1CCCC[C@H]1c1nc(-c2ccc(C(=O)Nc3cc(OC)ccn3)cc2)c(C(N)=O)n1N
IC50 [1]: 450 nM
IC50 [2]: > 30 µM

CCc1ccnc(NC(=O)c2ccc(-c3nc([C@@H]4CCCCN4C(=O)/C(C#N)=C/C(C)C)n(N)c3C(N)=O)cc2)c1
IC50 [3]: > 10000 nM
